Data as given in publication PMC11091220, “Metabolism-driven in vitro/in vivo disconnect of an oral ERɑ VHL-PROTAC” (Communications Biology, 2024).

Experiments:
ERα = molecular target: T1, ERα (Homo sapiens, UniProt P03372); assay: CRISPR VHL knock out, ERα imaging in MCF7 Cas9 cells; format: cell-based; settings: MCF7 Cas9, 24 h
T1 construct: endogenous in cells; host or cells: MCF7 (also MCF7 engineered to express Cas9)
T1 sequence (P03372 1-595): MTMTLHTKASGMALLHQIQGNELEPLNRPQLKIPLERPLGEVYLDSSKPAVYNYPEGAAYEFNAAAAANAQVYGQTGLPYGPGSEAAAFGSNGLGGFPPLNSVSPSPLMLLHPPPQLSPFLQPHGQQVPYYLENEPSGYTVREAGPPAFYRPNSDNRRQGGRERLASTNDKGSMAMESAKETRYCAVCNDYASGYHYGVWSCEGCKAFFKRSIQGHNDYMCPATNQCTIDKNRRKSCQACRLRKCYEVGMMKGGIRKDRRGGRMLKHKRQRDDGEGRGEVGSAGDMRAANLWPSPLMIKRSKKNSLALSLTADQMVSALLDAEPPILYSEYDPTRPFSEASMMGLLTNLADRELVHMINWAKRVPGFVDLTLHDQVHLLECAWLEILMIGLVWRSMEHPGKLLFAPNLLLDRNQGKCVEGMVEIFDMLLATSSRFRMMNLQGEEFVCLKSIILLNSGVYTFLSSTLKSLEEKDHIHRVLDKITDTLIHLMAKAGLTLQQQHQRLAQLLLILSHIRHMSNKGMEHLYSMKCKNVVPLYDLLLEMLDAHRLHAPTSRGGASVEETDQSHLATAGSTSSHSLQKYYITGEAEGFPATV
Description: Chemically synthesised Edit-R crRNAs targeting VHL and ESR1 were purchased from Horizon Discovery (Cambridge, UK). Equal volumes of 4 crRNAs targeting each individual gene were pooled and then duplexed at a 1:1 ratio in 10 mM Tris pH7.4 buffer with tracrRNA (Horizon, U-002000-50) at room temperature. MCF7 cells were engineered to express cas9 under TetON promotor from the endogenous AAVS1 locus as described previously. Doxycycline-inducible Cas9 is linked via the cleavable T2A peptide to BFP enabling the identification of Cas9-positive cells by microscopy. MCF7 cas9 cells were cultured in RPMI phenol red free (Sigma) supplemented with 10% FBS and 1X GlutaMax (both Gibco). 72 h prior to reverse transfection, cas9 expression was induced by the addition 15 ng/mL doxycycline (Sigma) to the growth media.
MCF7 cells were reverse transfected with the crRNA:tracrRNA pools at 25 nM final concentration using Lipofectamine® RNAiMAX transfection reagent (Thermo Fisher): First crRNA:tracrRNA pools were dispensed into 384-well assay plates (Greiner, 781090), and incubated with 10 µL serum-free DMEM (Sigma) supplemented with 1% Lipofectamine RNAiMAX for 20 minutes at room temperature. […] Following image acquisition, analysis was completed using the Columbus Image Analysis platform (Perkin Elmer) to quantify ESR1 levels in cas9-positive cells. […]

[1] = Mouse hepatocyte intrinsic clearance; format: in vitro ADME
Description: Livers from CD-1 male mice weighing 30-35 g were digested and perfused using D-Hanks solution containing EDTA or collagenase. Once digested the liver was transferred to a petri dish and the hepatocytes were prepared by washing and centrifuging with a Leibovitz-15 medium containing 50% isotonic percoll. A cell viability >80% was required to progress the cells. The test compound was prepared to 10 mM in 100% DMSO and further diluted to 100 μM in 100% acetonitrile. The hepatocyte incubations were prepared in Leibovitz’s L-15 Medium pH 7.4 containing 1 million hepatocytes/mL and a final compound concentration of 1 µM. Cell viability was determined using a Cellometer Vision and >80% cell viability was required to proceed with the compound incubation. The compound/cell solution (250 µL) was incubated for 2 h at 37 °C and shaken at 900 rpm on an Eppendorf Thermomixer Comfort plate shaker. Samples (20 µL) were taken at 0.5, 5, 15, 30, 45, 60, 80, 100, and 120 min and quenched with 100 μL of 100% ice-cold acetonitrile. Samples were shaken at 800 rpm for 2 min and centrifuged at 4000 rpm for 20 min at 4 °C to pellet precipitated protein. The supernatant fraction was diluted 1:5 with deionised water, shaken at 1000 rpm for 2 min, and further diluted 1:1 with deionised water. Samples were analysed by LC-MS/MS[17].

Cc1ncsc1-c1ccc(CNC(=O)[C@@H]2C[C@@H](O)CN2C(=O)[C@@H](NC(=O)COCCCOCCCOc2cc(F)c([C@@H]3c4[nH]c5ccccc5c4C[C@@H](C)N3CC(C)(C)F)c(F)c2)C(C)(C)C)cc1 [Compound 5]
effect of VHL knockout on ER degradation (ERα): partially reduced
mouse hepatocytes stability [1]: 9 µL/min/x10^6 cells
hepatocyte CLint at 1 µM ([1]; male, CD-1, mouse, hepatocytes, pH 7.4, read-out: muHeps (mouse hepatocytes) clearance): 9 µL/min/1e6 cells
muHeps (mouse hepatocytes) clearance ([1]; mouse): 9.5 µL/min/1e6 cells
